# Experimental data published in ChEMBL document CHEMBL4706648, “Antitubercular 2-Pyrazolylpyrimidinones: Structure-Activity Relationship and Mode-of-Action Studies” (J Med Chem, 2021).
# Key:
# Type in all cases: functional, H37Rv
# Conditions in all cases: time 7-14 day
# [1] = test system: Mycobacterium tuberculosis
# [2] = test system: Mycobacterium tuberculosis; remark: listed apart in the source
# [3] = test system: Mycobacterium tuberculosis; remark: listed apart in the source
# [4] = test system: Mycobacterium tuberculosis; remark: listed apart in the source
SMILES,MIC [1],MIC [2],MIC [3],MIC [4]
Cc1cc(C)n(-c2nc(O)cc(-c3ccccc3)n2)n1,1.9 µM,16 µM,18 µM,40 µM
Cc1cc(Nc2ccc(F)cc2)n(-c2nc(C(F)(F)F)cc(=O)[nH]2)n1,1 µM,–,–,–
CCNc1cc(C)nn1-c1nc(-c2cccnc2)cc(=O)[nH]1,5.5 µM,–,41 µM,–
Cc1cc(C)n(-c2nc(C(F)(F)F)cc(=O)[nH]2)n1,17 µM,–,170 µM,–
CC(=O)Nc1cc(C)nn1-c1nc(-c2ccccc2)cc(=O)[nH]1,24 µM,–,–,–
COCCNc1cc(C)nn1-c1nc(C(F)(F)F)cc(=O)[nH]1,1.9 µM,–,39 µM,–
Cc1ccc(Nc2cc(C)nn2-c2nc(C)cc(O)n2)cc1,5.4 µM,45 µM,55 µM,110 µM
